# Measurements reported in patent US20120053197A1, “TRICYCLIC PYRIDINE DERIVATIVES, MEDICAMENTS CONTAINING SUCH COMPOUNDS, THEIR USE AND PROCESS FOR THEIR PREPARATION” (BOEHRINGER INGELHEIM INTERNATIONAL GMBH, priority 2010, published 2012).
# Molecular target: T1, recombinant human CETP (Homo sapiens, UniProt P11597)
# T1 construct: made in house; host or cells: CHO cells (protein secreted into conditioned medium)
# T1 sequence (P11597 18-493): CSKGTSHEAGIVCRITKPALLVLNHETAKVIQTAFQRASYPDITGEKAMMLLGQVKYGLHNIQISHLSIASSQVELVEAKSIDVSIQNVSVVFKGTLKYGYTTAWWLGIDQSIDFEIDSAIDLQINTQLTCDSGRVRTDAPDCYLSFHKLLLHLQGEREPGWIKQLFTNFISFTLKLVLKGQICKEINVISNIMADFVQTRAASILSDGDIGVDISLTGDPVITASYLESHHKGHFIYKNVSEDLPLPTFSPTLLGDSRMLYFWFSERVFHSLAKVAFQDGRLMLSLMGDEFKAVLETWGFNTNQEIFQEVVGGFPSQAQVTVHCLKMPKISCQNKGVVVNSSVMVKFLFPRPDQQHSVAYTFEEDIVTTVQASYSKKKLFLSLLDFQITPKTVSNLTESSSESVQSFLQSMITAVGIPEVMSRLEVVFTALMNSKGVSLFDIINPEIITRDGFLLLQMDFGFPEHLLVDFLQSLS
# Experiment: CETP in vitro fluorometric assay (Roar Biomedical), cholesterol ester transfer from HDL to LDL
# Format: biochemical
# Conditions: recombinant human CETP from CHO cells; 3 hours at 37° C.; fluorescence ex 485 nm / em 535 nm; compound concentrations between 1 nM and 30 μM; read-out: IC50 values for inhibition of CETP
# Protocol: CETP inhibitory activity of compounds of the present invention can be determined in a fluorometric assay puchased from Roar Biomedical, Inc. (New York, N.Y., USA). […] Recombinant human CETP was partially purified from medium conditioned by CETP expressing CHO cells. In a 384 well format 2.5 μl of compound solution in DMSO was combined with 2 μl of donor solution, 2 μl of acceptor solution and 0.8 μl of recombinant human CETP solution in a total volume of 100 μl with assay buffer and incubated for 3 hours at 37° C. The fluorescence intensity was measured at excitation wavelength of 485 nm and emission wavelength of 535 nm. IC50 values are calculated from dose effect curves from compound concentrations between 1 nM and 30 μM.
row,IC50,SMILES
1,1.43 µM,"CC(C)c1nc2c(c3c1[C@H](c1ccc(C(F)(F)F)cc1)OC31CCCC1)[C@@H](O)CC(C)(C)C2 [1(1), (3′S,9′S)-4′-isopropyl-7′,7′-dimethyl-3′-(4-(trifluoromethyl)phenyl)-6′,7′,8′,9′-tetrahydro-3′H-spiro[cyclopentane-1,1′-furo[3,4-c]quinolin]-9′-ol]"
2,4.68 µM,"CC(C)c1nc2c(c3c1[C@H](c1ccc(C(F)(F)F)cc1)O[C@]31C=CCC1)[C@@H](O)CC(C)(C)C2 [1(2), (1R,3′S,9′S)-4′-isopropyl-7′,7′-dimethyl-3′-(4-(trifluoromethyl)phenyl)-6′,7′,8′,9′-tetrahydro-3′H-spiro[cyclopent[2]ene-1,1′-furo[3,4-c]quinolin]-9′-ol]"
3,0.037 µM,"CC1(C)Cc2nc(C3CCCC3)c3c(c2[C@@H](O)C1)C1(CCCC1)O[C@@H]3c1ccc(C(F)(F)F)cc1 [1(6), (3′R,9′S)-4′-cyclopentyl-7′,7′-dimethyl-3′-(4-(trifluoromethyl)phenyl)-6′,7′,8′,9′-tetrahydro-3′H-spiro[cyclopentane-1,1′-furo[3,4-c]quinolin]-9′-ol]"
4,0.077 µM,"CC(C)c1ccc([C@H]2OC3(CCCC3)c3c2c(C(C)C)nc2c3[C@@H](O)CC(C)(C)C2)cc1 [1(7), (3′R,9′S)-4′-isopropyl-3′-(4-isopropylphenyl)-7′,7′-dimethyl-6′,7′,8′,9′-tetrahydro-3′H-spiro[cyclopentane-1,1′-furo[3,4-c]quinolin]-9′-ol]"
5,0.856 µM,"CC(C)c1nc2c(c3c1[C@@H](c1ccc(F)cc1)OC31CCCC1)[C@@H](O)CC(C)(C)C2 [1(8), (3′R,9′S)-3′-(4-fluorophenyl)-4′-isopropyl-7′,7′-dimethyl-6′,7′,8′,9′-tetrahydro-3′H-spiro[cyclopentane-1,1′-furo[3,4-c]quinolin]-9′-ol]"
6,6.89 µM,"CC1(C)Cc2nc(C3CCOCC3)c3c(c2[C@@H](O)C1)C1(CCCC1)O[C@H]3c1ccc(C(F)(F)F)cc1 [1(13), (3′S,9′S)-7′,7′-dimethyl-4′-(tetrahydro-2H-pyran-4-yl)-3′-(4-(trifluoromethyl)phenyl)-6′,7′,8′,9′-tetrahydro-3′H-spiro[cyclopentane-1,1′-furo[3,4-c]quinolin]-9′-ol]"
7,0.409 µM,"Cc1ccc([C@H]2OC3(CCCC3)c3c2c(C(C)C)nc2c3[C@@H](O)CC(C)(C)C2)cc1 [1(14), (3′R,9′S)-4′-isopropyl-7′,7′-dimethyl-3′-p-tolyl-6′,7′,8′,9′-tetrahydro-3′H-spiro[cyclopentane-1,1′-furo[3,4-c]quinolin]-9′-ol]"
8,0.131 µM,"CC(C)c1nc2c(c3c1[C@@H](c1ccc(OC(F)(F)F)cc1)OC31CCCC1)[C@@H](O)CC(C)(C)C2 [1(17), (3′R,9′S)-4′-isopropyl-7′,7′-dimethyl-3′-(4-(trifluoromethoxy)phenyl)-6′,7′,8′,9′-tetrahydro-3′H-spiro[cyclopentane-1,1′-furo[3,4-c]quinolin]-9′-ol]"
9,0.363 µM,"CC(C)c1nc2c(c3c1[C@@H](c1ccc(C(C)(C)C)cc1)OC3(C)C)[C@@H](O)CC(C)(C)C2 [1(18), (3R,9S)-3-(4-tert-butylphenyl)-4-isopropyl-1,1,7,7-tetramethyl-1,3,6,7,8,9-hexahydrofuro[3,4-c]quinolin-9-ol]"
10,0.351 µM,"CC1(C)Cc2nc(C3CCCC3)c3c(c2[C@@H](O)C1)C(C)(C)O[C@@H]3c1ccc(C(C)(C)C)cc1 [1(19), (3R,9S)-3-(4-tert-butylphenyl)-4-cyclopentyl-1,1,7,7-tetramethyl-1,3,6,7,8,9-hexahydrofuro[3,4-c]quinolin-9-ol]"
11,1.08 µM,"CC(C)c1nc2c(c3c1[C@@H](c1ccc(C#N)cc1)OC31CCCC1)[C@@H](O)CC(C)(C)C2 [1(20), 4-((3′R,9′S)-9′-hydroxy-4′-isopropyl-7′,7′-dimethyl-6′,7′,8′,9′-tetrahydro-3′H-spiro[cyclopentane-1,1′-furo[3,4-c]quinoline]-3′-yl)benzonitrile]"
12,0.047 µM,"CC(C)c1nc2c(c3c1[C@@H](c1ccc(C(C)(C)C#N)cc1)OC31CCCC1)[C@@H](O)CC(C)(C)C2 [1(22), 2-(4-((3′R,9′S)-9′-hydroxy-4′-isopropyl-7′,7′-dimethyl-6′,7′,8′,9′-tetrahydro-3′H-spiro[cyclopentane-1,1′-furo[3,4-c]quinoline]-3′-yl)phenyl)-2-methylpropanenitrile]"
13,2.14 µM,"CC(C)c1nc2c(c3c1[C@H](c1ccc(C(C)(C)C#N)cc1)OC31CCCC1)[C@@H](O)CC(C)(C)C2 [1(23), 2-(4-((3′S,9′S)-9′-hydroxy-4′-isopropyl-7′,7′-dimethyl-6′,7′,8′,9′-tetrahydro-3′H-spiro[cyclopentane-1,1′-furo[3,4-c]quinoline]-3′-yl)phenyl)-2-methylpropanenitrile]"
14,0.286 µM,"CC(C)c1nc2c(c3c1[C@@H](c1ccc(C(F)(F)F)s1)OC31CCCC1)[C@@H](O)CC(C)(C)C2 [1(24), (3′S,9′S)-4′-isopropyl-7′,7′-dimethyl-3′-(5-(trifluoromethyl)thiophen-2-yl)-6′,7′,8′,9′-tetrahydro-3′H-spiro[cyclopentane-1,1′-furo[3,4-c]quinolin]-9′-ol]"
15,0.772 µM,"CC(C)c1nc2c(c3c1[C@@H](c1cnc(C(C)(C)C)nc1)OC31CCCC1)[C@@H](O)CC(C)(C)C2 [1(25), (3′R,9′S)-3′-(2-tert-butylpyrimidin-5-yl)-4′-isopropyl-7′,7′-dimethyl-6′,7′,8′,9′-tetrahydro-3′H-spiro[cyclopentane-1,1′-furo[3,4-c]quinolin]-9′-ol]"

row,SMILES,IC50
1,"CC(C)c1nc2c(c3c1[C@@H](c1ccc(C(F)(F)F)cc1)OC3(C)C)[C@@H](O)CC(C)(C)C2 [1(3), (3R,9S)-4-isopropyl-1,1,7,7-tetramethyl-3-(4-(trifluoromethyl)phenyl)-1,3,6,7,8,9-hexahydrofuro[3,4-c]quinolin-9-ol]",0.46 µM
2,"CC1(C)Cc2nc(C3CCOCC3)c3c(c2[C@@H](O)C1)C1(CCCC1)O[C@@H]3c1ccc(C(F)(F)F)cc1 [1(5), (3′R,9′S)-7′,7′-dimethyl-4′-(tetrahydro-2H-pyran-4-yl)-3′-(4-(trifluoromethyl)phenyl)-6′,7′,8′,9′-tetrahydro-3′H-spiro[cyclopentane-1,1′-furo[3,4-c]quinolin]-9′-ol]",0.042 µM
3,"CC(C)c1nc2c(c3c1[C@@H](c1ccc(Cl)cc1)OC31CCCC1)[C@@H](O)CC(C)(C)C2 [1(9), (3′R,9′S)-3′-(4-chlorophenyl)-4′-isopropyl-7′,7′-dimethyl-6′,7′,8′,9′-tetrahydro-3′H-spiro[cyclopentane-1,1′-furo[3,4-c]quinolin]-9′-ol]",0.148 µM
4,"CC1(C)Cc2nc(C3CCCC3)c3c(c2[C@@H](O)C1)C1(CCCC1)O[C@@H]3c1ccc(F)cc1 [1(10), (3′R,9′S)-4′-cyclopentyl-3′-(4-fluorophenyl)-7′,7′-dimethyl-6′,7′,8′,9′-tetrahydro-3′H-spiro[cyclopentane-1,1′-furo[3,4-c]quinolin]-9′-ol]",0.36 µM
5,"CC(C)c1nc2c(c3c1[C@@H](c1ccc(C(C)(C)C)cc1)OC31CCCC1)[C@@H](O)CC(C)(C)C2 [1(11), (3′R,9′S)-3′-(4-tert-butylphenyl)-4′-isopropyl-7′,7′-dimethyl-6′,7′,8′,9′-tetrahydro-3′H-spiro[cyclopentane-1,1′-furo[3,4-c]quinolin]-9′-ol]",0.036 µM
6,"CC(C)c1nc2c(c3c1[C@@H](c1ccc(C(F)(F)F)nc1)OC31CCCC1)[C@@H](O)CC(C)(C)C2 [1(12), (3′R,9′S)-4′-isopropyl-7′,7′-dimethyl-3′-(6-(trifluoromethyl)pyridin-3-yl)-6′,7′,8′,9′-tetrahydro-3′H-spiro[cyclopentane-1,1′-furo[3,4-c]quinolin]-9′-ol]",0.15 µM
7,"CC(C)c1nc2c(c3c1[C@@H](c1ccc(C(F)(F)F)cc1)OC31CCCC1)[C@@H](O)CC1(CCC1)C2 [1(15), (3′R,9′S)-4′-isopropyl-7′,7′-(propan-1,3-diyl)-3′-(4-(trifluoromethyl)phenyl)-6′,7′,8′,9′-tetrahydro-3′H-spiro[cyclopentane-1,1′-furo[3,4-c]quinolin]-9′-ol]",0.021 µM
8,"CC(C)c1nc2c(c3c1[C@@H](c1ccc(C(F)(F)F)c(F)c1)OC31CCCC1)[C@@H](O)CC(C)(C)C2 [1(16), (3′R,9′S)-3′-(3-fluoro-4-(trifluoromethyl)phenyl)-4′-isopropyl-7′,7′-dimethyl-6′,7′,8′,9′-tetrahydro-3′H-spiro[cyclopentane-1,1′-furo[3,4-c]quinolin]-9′-ol]",0.043 µM
9,"CC(C)c1nc2c(c3c1[C@@H](c1ccc(C(F)(F)F)cn1)OC31CCCC1)[C@@H](O)CC(C)(C)C2 [1(21), (3′S,9′S)-4′-isopropyl-7′,7′-dimethyl-3′-(5-(trifluoromethyl)pyridin-2-yl)-6′,7′,8′,9′-tetrahydro-3′H-spiro[cyclopentane-1,1′-furo[3,4-c]quinolin]-9′-ol]",0.124 µM
